Data on one compound can be found in patent US20090148850A1, “Methods for identifying modulators of P2RY14” (priority 2007, published 2009).

In test [1] the test system is simian (chimpanzee) P2RY14. In words: FLIPR whole cell Ca2+ agonist assay, HEK cells expressing simian (chimpanzee) P2RY14 and Gqi5. The test is classed as cell-based. An excerpt:
Stable HEK clonal cell lines expressing P2RY14 and the chimeric G protein Gqi5 were constructed. The chimeric Gqi5 forces the coupling of P2RY14 through the Gq (calcium) pathway and allows for monitoring of calcium signaling using a calcium binding fluorescent dye and a FLIPR (fluorometric imaging plate reader, MDS Sciex). Vector pCEP4 comprising the chimeric Gqi5 was obtained from Molecular Devices, Sunnyvale, Calif. (Cat. No. RD-PGQI5).
The simian (chimpanzee) P2RY14 nucleic acid fragment was synthesized based upon the Ensembl Gene ID ENSPTRG00000030093 by Bio S & T, Montreal, Quebec, Canada, to be flanked with KpnI and NotI restriction enzyme sites. […] The DNA fragment was digested with KpnI and NotI and then cloned into a pcDEF3 vector previously digested with KpnI and NotI to place the DNA fragment in the proper orientation downstream of the human EF-1a promoter. The nucleic acid encoding the simian P2RY14 was under the control of the human EF-1a promoter.
Cells were grown in DMEM medium containing 25 mM HEPES, pH 7.4 and 10% FBS, 50 units/ml penicillin/50 μg/ml streptomycin, 2 mM glutamine and 1 mM sodium pyruvate at 37° C. in humidified air containing 5% CO2. Two days post-transfection, cells were grown under selection in the DMEM medium as indicated above and supplemented with 200 μg/ml Hygromycin B and 250 μg/ml geneticin.
Cells were incubated overnight at 37° C. and 5% CO2 to form a monolayer. On the following day, 30 μl of fluorescent no-wash dye was added to the cell monolayer and the plate was incubated for 60 minutes at 37° C., 5% CO2.
For agonist assays, 6.12 μl of 10× agonist solution was added to the cell/dye incubation and Ca^2+ signaling was monitored by FLIPR. For antagonist assays, 250 nl of compound in 100% DMSO was added to cell/dye mixture; following a 20 minute incubation at room temperature, 6.12 μl of 10× agonist solution at EC80 in HBSS containing 20 mM Hepes was added to cells and Ca^2+ signaling was monitored by FLIPR. Quantitation of the % stimulation or inhibition of Ca^2+ signaling by agonist or antagonist, respectively, was calculated using the Max-Min fluorescent signal detected.

Test [2] deals with simian (chimpanzee) P2RY14. The test can be described thus: CellKey System live cell functional assay, simian P2RY14. As to conditions: HEK cells expressing simian P2RY14 and Gqi5. The test is classed as cell-based. As for the experimental part:
(§1) The Cellkey System™ (MDS Sciex), a novel, live cell, label-free, real-time technology, was used to examine P2RY14 activation following agonist stimulation. The CellKey System™ is based on cellular dielectric spectroscopy (CDS) and monitors changes in impedance of the applied electrical current through the cell monolayer upon receptor activation.
(§2) On the following day, growth medium was removed from the cell monolayer and replaced with 135 μl of HBSS pH 7.4 containing 20 mM Hepes for a 30 minutes pre-incubation period at room temperature. Baseline measurements were made for 5 minutes at 28° C. prior to ligand addition. For agonist assays, 15 μl of 10× agonist diluted in HBSS pH 7.4 containing 20 mM HEPES was added to the cell monolayer simultaneously using the 96 multichannel head from the CellKey™ System. Cellular response was monitored for 10 minutes to assess cellular response after ligand addition.

The target of a further test is T1, mouse P2RY14 (Mus musculus, UniProt Q9ESG6).
T1 construct: expressed in transfected cells
T1 sequence (Q9ESG6 1-338): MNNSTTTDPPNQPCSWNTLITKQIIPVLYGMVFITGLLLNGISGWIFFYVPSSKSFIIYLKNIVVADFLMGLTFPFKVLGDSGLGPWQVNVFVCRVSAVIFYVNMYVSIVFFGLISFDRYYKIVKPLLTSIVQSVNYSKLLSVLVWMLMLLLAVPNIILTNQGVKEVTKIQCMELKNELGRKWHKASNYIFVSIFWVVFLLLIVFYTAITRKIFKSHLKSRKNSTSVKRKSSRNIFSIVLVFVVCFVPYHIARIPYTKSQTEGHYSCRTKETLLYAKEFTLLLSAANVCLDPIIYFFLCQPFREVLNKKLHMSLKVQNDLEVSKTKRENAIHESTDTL
In words: CellKey System live cell functional assay, mouse P2RY14. The test is classed as cell-based. The note with it: HEK cells expressing mouse P2RY14 and Gqi5. As for the experimental part: as §1, §2

Test [3] addresses T2, P2RY14 (Homo sapiens, UniProt Q15391).
T2 sequence (Q15391 1-338): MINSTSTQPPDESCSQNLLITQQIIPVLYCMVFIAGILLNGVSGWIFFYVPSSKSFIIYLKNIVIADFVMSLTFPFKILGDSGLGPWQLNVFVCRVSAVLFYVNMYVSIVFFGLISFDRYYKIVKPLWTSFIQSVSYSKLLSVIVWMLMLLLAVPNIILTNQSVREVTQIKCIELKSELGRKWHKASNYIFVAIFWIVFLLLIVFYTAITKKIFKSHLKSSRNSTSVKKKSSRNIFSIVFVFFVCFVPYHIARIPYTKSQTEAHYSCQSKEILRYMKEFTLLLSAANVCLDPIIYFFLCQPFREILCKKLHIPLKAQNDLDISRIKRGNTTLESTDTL
The test can be described thus: CellKey System live cell functional assay, human P2RY14. It counts as cell-based. As to conditions: HEK cells expressing human P2RY14 and Gqi5. Also on record: expressed in transfected cells. As for the experimental part: as §1, §2

The target in test [4] is T2, P2RY14. Further details: host or cells: yeast and HEK-293 cells (Chambers et al., J. Biol. Chem. 275: 10767-10771 (2000)). As to conditions: yeast and mammalian cells, Chambers et al. 2000; cited from earlier work.

As for `O=c1ccn([C@@H]2O[C@H](COP(=O)(O)O)[C@@H](O)[C@H]2O)c(=O)[nH]1` [UMP], the “activation of P2RY14 (Ca2+ signaling)” value in test [1] was “activated”. Further, the “P2RY14 signaling (impedance, CellKey)” value (in test [2]; at mouse P2RY14; at P2RY14 [3]) was “mediated signaling” each time. At P2RY14 [4], the “activation of P2RY14” value is reported as “unable to activate”.
